Measured values reported in US20090311203A1, “GEM-DIFLUORIDE C-GLYCOPEPTIDE COMPOUNDS, THEIR PREPARATION AND USE PARTICULARLY FOR PRESERVATION OF BIOLOGICAL MATERIALS” (INSTITUT NATIONAL DES SCIENCES APPLIQUEES DE ROUEN (INSA), priority 2006, published 2009).
“And” between values parts separate entries of the source, which are not always exact repeats. Equal values may be shown once.

What was measured:
Type in all cases: cell-based
[1] = system: primary adult skin fibroblasts; assay: Protection of fibroblasts against UV-C exposure; settings: 37° C., 8.6 mM; for cell protection against UV (in words): UV-C 2 hours; for live cells still observed: UV-C (254 nm) for 2 hours
Description: In the following experiments, the studies were conducted at 37° C. on adult primary skin fibroblasts. The cells were exposed to UV-C irradiation for 2 hours in the presence of AAGP derivatives.

HELA cells = assay: Survival of HELA cells subjected to UVC; settings: exposed to UVC; low concentrations; FIGS. 37, 38 and 39
Description: FIGS. 37, 38 and 39 are representations of the effects of the various derivatives on the survival of HELA cells subjected to UVC.
Studies were conducted on HELA cells, exposed to UVC, in the presence of the various synthesised compounds, at low concentrations.

[2] = system: primary adult skin fibroblasts; assay: Preservation of fibroblasts at low temperature (−3° C.); settings: 8.6 mM
Description: The purpose of the following experiment is to test the preservation activity of AAGP 11 compounds at low temperatures.
The cells are thus incubated at −3° C. in the presence of the compound AAGP 11.

COC(=O)[C@H](C)NC(=O)[C@H](CCCCNC(=O)C(F)(F)[C@]1(O)O[C@H](COCc2ccccc2)[C@H](OCc2ccccc2)[C@H](OCc2ccccc2)[C@H]1OCc1ccccc1)NC(=O)OCc1ccccc1 [AAGP-15]
cell protection against UV (in words) [1]: excellent protective properties

C[C@H](NC(=O)[C@@H](N)CCCCNC(=O)C(F)(F)[C@]1(O)O[C@H](CO)[C@H](O)[C@H](O)[C@H]1O)C(=O)O [Compound 12]
survival of HELA cells compared to the control (in words) (HELA cells): inferior results compared to the control

N[C@@H](CCCCNC(=O)C(F)(F)[C@]1(O)O[C@H](CO)[C@H](O)[C@H](O)[C@H]1O)C(=O)NCC(=O)O [Compound 30]
survival of HELA cells compared to the control (in words) (HELA cells): improve the survival of these cells compared to the control

C[C@H](NC(=O)[C@@H](N)CCCNC(=O)C(F)(F)[C@]1(O)O[C@H](CO)[C@H](O)[C@H](O)[C@H]1O)C(=O)O [Compound 26]
survival of HELA cells compared to the control (in words) (HELA cells): inferior results compared to the control

C[C@H](NC(=O)[C@@H](N)CCCCNC(=O)C(F)(F)[C@]1(O)O[C@H](CO)[C@H](O)[C@H](O)[C@H]1O)C(=O)O [Compound 11]
cell protection against UV (in words) [1]: high level of cell | live cells still observed ([1]; after 72 hours, serum-free medium with 0.5 mM EDTA, all control cells dead): 92% live cells are still | live cells still observed ([1]; after 4 days, almost all dead in the control): After 4 days, 60% live | survival of HELA cells compared to the control (in words) (HELA cells): Very satisfactory results | survival ([2]; after 6 days at −3° C., serum-free medium with 0.5 mM EDTA, control cells all dead): approximately 100% survival | cell preservation activity at low temperature (in words) ([2]; −3° C., listed as AAGP-11): very high preservation activity and 11 displays a very high
